Consider eight molecules from paper PMC10059083, “Design, Synthesis, and Biological Evaluation of Novel Hydroxamic Acid-Based Organoselenium Hybrids” (Pharmaceuticals, 2023).

One assay relates to MCF-7 cells. Description: MTT antiproliferative assay, MCF-7 cells. The format is cell-based. The note with it: for IC50: Homo sapiens, MCF7, 24 h, read-out: MCF7 IC50; for MCF7 TI (therapeutic index): ratio of IC50 against WI38 cells to IC50 against MCF-7 cells. The text has this:
(§1) Recently, OSe agents have attracted interest due to their potential chemoprotective and antitumor properties. […] Therefore, we estimated the OSe agents’ antiproliferative activities against different cancer cells, i.e., MCF-7 and HepG2 cells and healthy lung fibroblast WI-38 cells, using the MTT assay. The drug doxorubicin was employed as the standard. The corresponding therapeutic indices (TI) are described as the proportion of the WI38 cells IC50 to the IC50 of the cancer cell (e.g., MCF-7 and HepG2) (Table 1).
(§2) The products’ anticancer activity was examined using the MTT assay against breast (MCF-7) carcinoma cells, liver (HepG2), and normal WI-38 cells, following the previously reported method. Experimental details can be found in the Supplementary Materials.
(§3) 1.1. The biological assays
(§4) 1.1.1. The anticancer activity
(§5) The breast adenocarcinoma (MCF-7), Hepatocellular carcinoma (HEPG-2), and normal fibroblast (WI-38) cells were obtained from ATCC via Holding company for biological products and vaccines (VACSERA), Cairo, Egypt. The reagents […] medium, MTT, DMSO, and fetal bovine serum was obtained from Sigma Aldrich. Dulbecco’s modified Eagle’s medium was used as the culture medium for the cells, and the cytotoxicity was evaluated using the reported MTT assay. Doxorubicin was used as the positive reference, and the IC50 values were obtained from the corresponding dose-response curve.
(§6) This colorimetric assay is based on converting the yellow tetrazolium bromide (MTT) to a purple formazan derivative by mitochondrial succinate dehydrogenase in viable cells. Cell lines were cultured in […] medium with 10% fetal bovine serum. Antibiotics added were 100 units/ml penicillin and 100µg/ml streptomycin at 37 C in a 5% Co2 incubator. The cell lines were seeded in a 96-well plate at a density of 1.0x10^4 cells/well. at 37 C for 48 h under 5% Co2. After incubation, the cells were treated with different concentrations of compounds and incubated for 13 […]
(§7) Finally, dimethyl sulfoxide (DMSO) in the volume of 100 µl is added to each well to dissolve the purple formazan formed. The colorimetric assay is measured and recorded at an absorbance of 570 […]
(§8) The percentage of the relative cell viability was calculated as (A570 of treated samples/A570 of the untreated sample) X 100. […]
(In general: Formazan colour is commonly taken as a measure of viable cells.)

The next assay concerns HepG2 cells. Description: MTT antiproliferative assay, HepG2 cells. The format is cell-based. Conditions: for IC50: Homo sapiens, read-out: HepG2 IC50; for HepG2 TI (therapeutic index): ratio of IC50 against WI38 cells to IC50 against HepG2 cells.
From the text: Recently, OSe agents have attracted interest due to their potential chemoprotective and antitumor properties. We have developed several OSe compounds with promising antioxidant, antimicrobial, and antitumor properties. Therefore, we estimated the OSe agents’ antiproliferative activities against different cancer cells, i.e., MCF-7 and HepG2 cells and healthy lung fibroblast WI-38 cells, using the MTT assay. The drug doxorubicin was employed as the standard. The corresponding therapeutic indices (TI) are described as the proportion of the WI38 cells IC50 to the IC50 of the cancer cell (e.g., MCF-7 and HepG2) (Table 1).
as §2, §3, §4, §5, §6
Finally, dimethyl sulfoxide (DMSO) in the volume of 100 µl is added to each well to dissolve the purple formazan formed. The colorimetric assay is measured and recorded at an absorbance of 570 nm using a plate reader (EXL 800, USA). The percentage of the relative cell viability was calculated as (A570 of treated samples/A570 of the untreated sample) X 100. […]

Another assay relates to WI-38 cells. The assay is described as follows: MTT cytotoxicity assay, normal lung fibroblast WI-38 cells. The format is cell-based. The note with it: Homo sapiens, WI-38, 24 h, read-out: WI38 IC50.
From the text: as §1, §2, §3, §4, §5, §6, §7, §8

A further assay deals with E. coli. The assay is described as follows: Agar diffusion assay, E. coli. It counts as cell-based, Escherichia coli. Conditions: for E. coli ZID (inhibition zone diameter): 6-mm disks soaked with 20 μM of the OSe agents; for E. coli IA% (activity index): ratio of inhibition zone of compound to that of positive control (ampicillin). The text has this: (§9) The encouraging antitumor properties of the OSe compounds motivated us to evaluate their corresponding antimicrobial activities against the C. albicans fungal strain, S. aureus Gram-positive bacteria, and E. coli Gram-negative bacteria. Therefore, we applied the agar diffusion and minimum inhibitory concentration (MIC) methods using clotrimazole antifungal and ampicillin antibacterial drugs as standards.
The products’ antimicrobial properties were examined according to the previously reported method, via agar well diffusion assay against E. coli, S. aureus, and C. albicans. A microdilution method was also used to record MICs (M), following the previously reported procedure. Experimental details can be found in the Supplementary Materials.
1.1. […]
(§10) 1.1.2. The antimicrobial activity
The antimicrobial activities of the OSe compounds were evaluate d against C. albicans yeast as well as E.
coli gram-negative and S. aureus gram-positive bacteria employing the agar well diffusion assay. […]
5 g, and beef extract 3 g) seeded with the dedicated strain. Incubation lasted for 13 h at 36 0C.
Experiments were replicated three times and the antifungal clotrimazole and antibiotic ampicillin
1.1.3. […]

Assay [1] has as its system S. aureus. Description: Agar diffusion assay, S. aureus. The format is cell-based, Staphylococcus aureus. On the set-up: concentration or dose not given beside the values. The note with it: ratio of inhibition zone of compound to that of positive control (ampicillin).
From the text: as §9
The products’ antimicrobial properties were examined according to the previously reported method, via agar well diffusion assay against E. coli, S. aureus, and C. albicans. A microdilution method was also used to record MICs (M), following the previously reported procedure. Experimental details can be found in the Supplementary Materials. […]
as §10
The antimicrobial activities of the OSe compounds were evaluate d against C. albicans yeast as well as E. coli gram-negative and S. aureus gram-positive bacteria employing the agar well diffusion assay.
Briefly, a concentration of 1 mM was prepared for each compound by dissolving in DMSO. Paper discs of standard size […] were sterilized in an autoclave and soaked in 9 µL of the test compounds, and placed in the Petri dishes, which in turn contain a nutrient media (agar 9 g, peptone 5 g, and beef extract 3 g) seeded with the dedicated strain. Incubation lasted for 13 h at 36 0C.
Experiments were replicated three times and the antifungal clotrimazole and antibiotic ampicillin […]
For orientation: A growth-free zone around the sample is the usual read-out of agar diffusion tests.

A further assay has as its system C. albicans. The assay is described as follows: Agar diffusion assay, C. albicans. It counts as cell-based, Candida albicans. Conditions: for zone of inhibition at 20 µM: Candida albicans, read-out: C. albicans ZID (inhibition zone diameter); for C. albicans IA% (activity index): ratio of inhibition zone of compound to that of positive control (clotrimazole).
For assay [2], the system named is S. aureus. The assay is described as follows: Agar diffusion assay, S. aureus. It counts as cell-based. The note with it: Staphylococcus aureus; 6-mm disks soaked with 20 μM of the OSe agents; read-out: S. aureus ZID (inhibition zone diameter).

Where two headings read alike, the source gives them in different places.

One may read the IC50 as the concentration that inhibits the measured activity by half. `CCOC(=O)C(C#N)=NNc1ccc([Se]CC(=O)NOCc2ccccc2)cc1` [Compound 15, Ethyl 2-(2-(4-((2-((benzyloxy)amino)-2-oxoethyl)selanyl)phenyl)hydrazineylidene)-2-cyanoacetate]: in the assay with MCF-7 cells, the IC50 is 21.6 ± 1.6 µM and the “MCF7 TI (therapeutic index)” value is 3.8. The half-inhibitory concentration (IC50) in the assay with HepG2 cells (HepG2, 24 h) was determined as 15.8 ± 1.3 µM. The “HepG2 TI (therapeutic index)” value in the assay on HepG2 cells was 5.2. In addition, the half-maximal inhibitory concentration (IC50) with WI-38 cells turned out to be 82 ± 4.6 µM. For the same molecule, in the assay with E. coli, the “E. coli ZID (inhibition zone diameter)” value is on record as 12 mm and the “E. coli IA% (activity index)” value stood at 52.2%. The “S. aureus IA% (activity index)” value with S. aureus [1] was 71.4%. Besides, in the assay on C. albicans, the zone of inhibition at 20 µM was 20 mm and the “C. albicans IA% (activity index)” value is reported as 83.3%. Also, the zone of inhibition at 20 µM in the assay on S. aureus [2] amounted to 15 mm.
Regarding `O=C(O)CCC(=O)Nc1ccc([Se]CC(=O)NOCc2ccccc2)cc1` [Compound 11, 4-((4-((2-((Benzyloxy)amino)-2-oxoethyl)selanyl)phenyl)amino)-4-oxobutanoic Acid], in the assay with MCF-7 cells, the half-inhibitory concentration (IC50) came out at 35 ± 2.5 µM and the “MCF7 TI (therapeutic index)” value came out at 1.5. Besides, the IC50 in the assay on HepG2 cells (HepG2, 24 h) stood at 48.8 ± 2.8 µM. Further, the “HepG2 TI (therapeutic index)” value in the assay with HepG2 cells is reported as 1.1. For the same molecule, in the assay with WI-38 cells, the IC50 was found to be 52.5 ± 3.2 µM. Further, in the assay on E. coli, the “E. coli ZID (inhibition zone diameter)” value was found to be 7 mm and the “E. coli IA% (activity index)” value came out at 30.4%. The “S. aureus IA% (activity index)” value with S. aureus [1] was found to be 47.6%. Also, in the assay with C. albicans, the zone of inhibition at 20 µM worked out at 13 mm and the “C. albicans IA% (activity index)” value worked out at 54.2%. In addition, the zone of inhibition at 20 µM in the assay with S. aureus [2] was determined as 10 mm.
`O=C(O)C=CC(=O)Nc1ccc([Se]CC(=O)NOCc2ccccc2)cc1` [Compound 12, 4-((4-((2-((Benzyloxy)amino)-2-oxoethyl)selanyl)phenyl)amino)-4-oxobut-2-enoic Acid]: in the assay with MCF-7 cells, the IC50 is 63 ± 3.8 µM and the “MCF7 TI (therapeutic index)” value was 0.6. Besides, the IC50 with HepG2 cells (HepG2, 24 h) came to 72.9 ± 3.7 µM. In the assay with HepG2 cells, the “HepG2 TI (therapeutic index)” value turned out to be 0.5. In addition, the IC50 in the assay with WI-38 cells is 36.5 ± 2.4 µM. Further, in the assay with E. coli, the “E. coli ZID (inhibition zone diameter)” value worked out at 4 mm and the “E. coli IA% (activity index)” value was found to be 17.4%. Further, the “S. aureus IA% (activity index)” value in the assay with S. aureus [1] was 23.8%. Moreover, in the assay with C. albicans, the zone of inhibition at 20 µM stood at 10 mm and the “C. albicans IA% (activity index)” value came out at 41.7%. Besides, the zone of inhibition at 20 µM in the assay with S. aureus [2] worked out at 5 mm.
`COc1cccc2c1C(=O)c1c(O)c3c(c(O)c1C2=O)C[C@@](O)(C(=O)CO)C[C@@H]3O[C@H]1C[C@H](N)[C@H](O)[C@H](C)O1` [Adriamycin, doxorubicin, reference compound]: the concentration for half-maximal inhibition (IC50) in the assay on HepG2 cells (MTT bioassay, HepG2 cells, 24 h incubation) stood at 4.5 ± 0.2 µM.
For `CC(=O)Nc1ccc([Se]CC(=O)NOCc2ccccc2)cc1` [Compound 9, 2-((4-Acetamidophenyl)selanyl)-N-(benzyloxy)acetamide], in the assay on MCF-7 cells, the IC50 was determined as 45.6 ± 2.9 µM and the “MCF7 TI (therapeutic index)” value is given as 1.9. Moreover, the IC50 in the assay with HepG2 cells (HepG2, 24 h) was found to be 53 ± 3.2 µM. For the same molecule, the “HepG2 TI (therapeutic index)” value with HepG2 cells worked out at 1.6. Also, the IC50 in the assay on WI-38 cells is 84.8 ± 4.8 µM. Further, in the assay on E. coli, the “E. coli ZID (inhibition zone diameter)” value is given as 6 mm and the “E. coli IA% (activity index)” value is reported as 26.1%. For the same molecule, the “S. aureus IA% (activity index)” value in the assay on S. aureus [1] came out at 33.3%. In the assay with C. albicans, the zone of inhibition at 20 µM came out at 9 mm and the “C. albicans IA% (activity index)” value worked out at 37.5%. Besides, the zone of inhibition at 20 µM with S. aureus [2] was 7 mm.
For `O=C(C[Se]c1ccc(NC(=O)CCl)cc1)NOCc1ccccc1` [Compound 14, N-(benzyloxy)-2-((4-(2-chloroacetamido)phenyl)selanyl)acetamide], in the assay on MCF-7 cells, the IC50 was determined as 87.4 ± 4.1 µM and the “MCF7 TI (therapeutic index)” value stood at 1.1. In the assay with HepG2 cells (HepG2, 24 h), the IC50 was above 100 µM. For the same molecule, the IC50 in the assay with WI-38 cells is above 100 µM. For the same molecule, in the assay on C. albicans, the zone of inhibition at 20 µM came out at 4 mm and the “C. albicans IA% (activity index)” value is recorded as 16.7%.
Consider `CC1(C)S[C@@H]2[C@H](NC(=O)[C@H](N)c3ccccc3)C(=O)N2[C@H]1C(=O)O` [Ampicillin, ampicillin, reference compound], for which, in the assay on E. coli, the “E. coli ZID (inhibition zone diameter)” value came to 23 mm and the “E. coli IA% (activity index)” value was determined as 100%. Besides, in the assay with S. aureus [1], the “S. aureus IA% (activity index)” value stood at 100%. For the same molecule, the zone of inhibition at 20 µM in the assay with S. aureus [2] is 21 mm.
For the molecule `O=C(C[Se]c1ccc(N=Nc2ccc(O)cc2)cc1)NOCc1ccccc1` [Compound 16, N-(benzyloxy)-2-((4-((4-hydroxyphenyl)diazenyl)phenyl)selanyl)acetamide], in the assay on MCF-7 cells, the IC50 was 33.7 ± 2.4 µM and the “MCF7 TI (therapeutic index)” value stood at 1.9. In the assay with HepG2 cells (HepG2, 24 h), the IC50 stood at 26.5 ± 2 µM. Moreover, in the assay on HepG2 cells, the “HepG2 TI (therapeutic index)” value was 2.4. In the assay with WI-38 cells, the IC50 came out at 64.2 ± 3.9 µM. In the assay with E. coli, the “E. coli ZID (inhibition zone diameter)” value was found to be 9 mm and the “E. coli IA% (activity index)” value worked out at 39.1%. Moreover, the “S. aureus IA% (activity index)” value with S. aureus [1] stood at 52.4%. Further, in the assay on C. albicans, the zone of inhibition at 20 µM was determined as 16 mm and the “C. albicans IA% (activity index)” value worked out at 66.7%. The zone of inhibition at 20 µM with S. aureus [2] stood at 11 mm.
